Experimental findings from ChEMBL document CHEMBL4251681, “Isochromophilones A-F, Cytotoxic Chloroazaphilones from the Marine Mangrove Endophytic Fungus Diaporthe sp. SCSIO 41011” (J Nat Prod, 2018) are described below.

pIC50: −log10 of the molar value. Calls of active or inactive are those of the source. The rule behind the calls is not given here. Where only a bound is given, the exact number is not on record here.

The subject of one test is OS-RC-2. Nature of the test: Cytotoxicity against human OS-RC2 cells after 72 hrs by CCK-8 assay. Format: functional, cell-based. Conditions: OS-RC-2, 72 h.
Another test concerns ACHN. Nature of the test: Cytotoxicity against human ACHN cells after 72 hrs by CCK-8 assay. Format: functional, cell-based.
In test [1] the test system is 786-0. The test is described as follows: Cytotoxicity against human 786-O cells after 72 hrs by CCK-8 assay. The test is classed as functional, cell-based. Conditions: 786-0, 72 h.
For test [2], the system named is 786-0. Nature of the test: Induction of apoptosis in human 786-O cells assessed as viable cells at 10 uM after 24 hrs by annexin V-FITC/propidium iodide staining based flow cytometry (reference value: 100%). As to conditions: 786-0, 24 h, read-out: Activity. The test is classed as functional.
The test system of test [3] is 786-0. Nature of the test: Induction of apoptosis in human 786-O cells assessed as early apoptotic cells at 10 uM after 72 hrs by annexin V-FITC/propidium iodide staining based flow cytometry (reference value: 0%). Format: functional.
Test [4] has as its system 786-0. The test is described as follows: Induction of apoptosis in human 786-O cells assessed as early apoptotic cells at 5 uM after 24 hrs by annexin V-FITC/propidium iodide staining based flow cytometry (reference value: 0%). The test is classed as functional.
In test [5] the test system is 786-0. Nature of the test: Induction of apoptosis in human 786-O cells assessed as necrotic cells at 10 uM after 72 hrs by annexin V-FITC/propidium iodide staining based flow cytometry (reference value: 0%). The test is classed as functional.
Test [6] deals with 786-0. The test is described as follows: Induction of apoptosis in human 786-O cells assessed as late apoptotic cells at 5 uM after 24 hrs by annexin V-FITC/propidium iodide staining based flow cytometry (reference value: 0%). The test is classed as functional.
The subject of test [7] is 786-0. The test is described as follows: Induction of apoptosis in human 786-O cells assessed as early apoptotic cells at 2.5 uM after 24 hrs by annexin V-FITC/propidium iodide staining based flow cytometry (reference value: 0%). Format: functional.
The test system of test [8] is 786-0. Nature of the test: Induction of apoptosis in human 786-O cells assessed as late apoptotic cells at 5 uM after 48 hrs by annexin V-FITC/propidium iodide staining based flow cytometry (reference value: 0%). The test is classed as functional.
Test [9] deals with 786-0. Nature of the test: Induction of apoptosis in human 786-O cells assessed as necrotic cells at 2.5 uM after 72 hrs by annexin V-FITC/propidium iodide staining based flow cytometry (reference value: 0%). The test is classed as functional.
The subject of test [10] is 786-0. The test is described as follows: Induction of apoptosis in human 786-O cells assessed as viable cells at 10 uM after 48 hrs by annexin V-FITC/propidium iodide staining based flow cytometry (reference value: 100%). Conditions: 786-0, 48 h, read-out: Activity. Format: functional.
Test [11] deals with 786-0. The test is described as follows: Induction of apoptosis in human 786-O cells assessed as necrotic cells at 2.5 uM after 24 hrs by annexin V-FITC/propidium iodide staining based flow cytometry (reference value: 0%). Format: functional.
Test [12] concerns 786-0. The test is described as follows: Induction of apoptosis in human 786-O cells assessed as viable cells at 5 uM after 48 hrs by annexin V-FITC/propidium iodide staining based flow cytometry (reference value: 100%). Format: functional. As to conditions: 786-0, 48 h, read-out: Activity.
Test [13] deals with 786-0. Nature of the test: Induction of apoptosis in human 786-O cells assessed as early apoptotic cells at 10 uM after 24 hrs by annexin V-FITC/propidium iodide staining based flow cytometry (reference value: 0%). The test is classed as functional.
The test system of test [14] is 786-0. The test is described as follows: Induction of apoptosis in human 786-O cells assessed as viable cells at 5 uM after 72 hrs by annexin V-FITC/propidium iodide staining based flow cytometry (reference value: 100%). Format: functional. As to conditions: 786-0, 72 h, read-out: Activity.
Test [15] relates to 786-0. The test is described as follows: Induction of apoptosis in human 786-O cells assessed as late apoptotic cells at 2.5 uM after 24 hrs by annexin V-FITC/propidium iodide staining based flow cytometry (reference value: 0%). The test is classed as functional.
Test [16] relates to 786-0. Nature of the test: Induction of apoptosis in human 786-O cells assessed as necrotic cells at 2.5 uM after 48 hrs by annexin V-FITC/propidium iodide staining based flow cytometry (reference value: 0%). Format: functional.
In test [17] the test system is 786-0. The test is described as follows: Induction of apoptosis in human 786-O cells assessed as late apoptotic cells at 2.5 uM after 72 hrs by annexin V-FITC/propidium iodide staining based flow cytometry (reference value: 0%). The test is classed as functional.
Test [18] relates to 786-0. The test is described as follows: Induction of apoptosis in human 786-O cells assessed as viable cells at 2.5 uM after 48 hrs by annexin V-FITC/propidium iodide staining based flow cytometry (reference value: 100%). The test is classed as functional. Conditions: 786-0, 48 h, read-out: Activity.
Test [19] concerns 786-0. Nature of the test: Induction of apoptosis in human 786-O cells assessed as late apoptotic cells at 10 uM after 48 hrs by annexin V-FITC/propidium iodide staining based flow cytometry (reference value: 0%). Format: functional.
Test [20] deals with 786-0. The test is described as follows: Induction of apoptosis in human 786-O cells assessed as early apoptotic cells at 2.5 uM after 72 hrs by annexin V-FITC/propidium iodide staining based flow cytometry (reference value: 0%). The test is classed as functional.
The test system of test [21] is 786-0. Nature of the test: Induction of apoptosis in human 786-O cells assessed as viable cells at 5 uM after 24 hrs by annexin V-FITC/propidium iodide staining based flow cytometry (reference value: 100%). Conditions: 786-0, 24 h, read-out: Activity. Format: functional.
The subject of test [22] is 786-0. Nature of the test: Induction of apoptosis in human 786-O cells assessed as early apoptotic cells at 5 uM after 48 hrs by annexin V-FITC/propidium iodide staining based flow cytometry (reference value: 0%). Format: functional.
Test [23] deals with 786-0. The test is described as follows: Induction of apoptosis in human 786-O cells assessed as viable cells at 10 uM after 72 hrs by annexin V-FITC/propidium iodide staining based flow cytometry (reference value: 100%). As to conditions: 786-0, 72 h, read-out: Activity. Format: functional.
Test [24] concerns 786-0. The test is described as follows: Induction of apoptosis in human 786-O cells assessed as early apoptotic cells at 10 uM after 48 hrs by annexin V-FITC/propidium iodide staining based flow cytometry (reference value: 0%). Format: functional.
Test [25] deals with 786-0. The test is described as follows: Induction of apoptosis in human 786-O cells assessed as necrotic cells at 5 uM after 48 hrs by annexin V-FITC/propidium iodide staining based flow cytometry (reference value: 0%). Format: functional.
Test [26] has as its system 786-0. Nature of the test: Induction of apoptosis in human 786-O cells assessed as late apoptotic cells at 10 uM after 24 hrs by annexin V-FITC/propidium iodide staining based flow cytometry (reference value: 0%). The test is classed as functional.
Test [27] has as its system 786-0. Nature of the test: Induction of apoptosis in human 786-O cells assessed as late apoptotic cells at 5 uM after 72 hrs by annexin V-FITC/propidium iodide staining based flow cytometry (reference value: 0%). The test is classed as functional.
Test [28] deals with 786-0. Nature of the test: Induction of apoptosis in human 786-O cells assessed as necrotic cells at 5 uM after 72 hrs by annexin V-FITC/propidium iodide staining based flow cytometry (reference value: 0%). Format: functional.
Test [29] concerns 786-0. Nature of the test: Induction of apoptosis in human 786-O cells assessed as late apoptotic cells at 2.5 uM after 48 hrs by annexin V-FITC/propidium iodide staining based flow cytometry (reference value: 0%). The test is classed as functional.
For test [30], the system named is 786-0. Nature of the test: Induction of apoptosis in human 786-O cells assessed as viable cells at 2.5 uM after 24 hrs by annexin V-FITC/propidium iodide staining based flow cytometry (reference value: 100%). The test is classed as functional. Conditions: 786-0, 24 h, read-out: Activity.
Test [31] concerns 786-0. Nature of the test: Induction of apoptosis in human 786-O cells assessed as viable cells at 2.5 uM after 72 hrs by annexin V-FITC/propidium iodide staining based flow cytometry (reference value: 100%). Conditions: 786-0, 72 h, read-out: Activity. Format: functional.
Test [32] has as its system 786-0. Nature of the test: Cell cycle arrest in human 786-O cells at 2.5 to 10 uM after 24 hrs by […] based flow cytometry. Format: functional.
The test system of test [33] is 786-0. Nature of the test: Induction of apoptosis in human 786-O cells assessed as necrotic cells at 10 uM after 24 hrs by annexin V-FITC/propidium iodide staining based flow cytometry (reference value: 0%). The test is classed as functional.
Test [34] has as its system 786-0. The test is described as follows: Induction of apoptosis in human 786-O cells assessed as late apoptotic cells at 10 uM after 72 hrs by annexin V-FITC/propidium iodide staining based flow cytometry (reference value: 0%). The test is classed as functional.
Test [35] deals with 786-0. Nature of the test: Induction of apoptosis in human 786-O cells assessed as early apoptotic cells at 5 uM after 72 hrs by annexin V-FITC/propidium iodide staining based flow cytometry (reference value: 0%). Format: functional.
Test [36] relates to 786-0. The test is described as follows: Induction of apoptosis in human 786-O cells assessed as early apoptotic cells at 2.5 uM after 48 hrs by annexin V-FITC/propidium iodide staining based flow cytometry (reference value: 0%). Format: functional.
Test [37] has as its system 786-0. The test is described as follows: Induction of apoptosis in human 786-O cells assessed as necrotic cells at 10 uM after 48 hrs by annexin V-FITC/propidium iodide staining based flow cytometry (reference value: 0%). The test is classed as functional.
Test [38] has as its system 786-0. Nature of the test: Induction of apoptosis in human 786-O cells assessed as necrotic cells at 5 uM after 24 hrs by annexin V-FITC/propidium iodide staining based flow cytometry (reference value: 0%). The test is classed as functional.

On to `CC[C@H](C)/C=C(C)/C=C/C1=CC2=C(Cl)C(=O)[C@](C)(O)[C@@H](O)[C@H]2CO1`, for which the figures for the negative-log IC50 (pIC50) in the test with OS-RC-2, in the test with ACHN and in the test with 786-0 [1] were 5.31, less than 4.30 and 4.32, respectively.
As to `CC[C@H](C)/C=C(C)/C=C/C1=CC2=C(Cl)[C@H](OC)[C@]3(C)O[C@](C)(OC)[C@H](C(C)=O)[C@H]3C2=CO1`, the results for the pIC50 with OS-RC-2, in the test with ACHN and in the test with 786-0 [1] were 4.36, less than 4.30 and 4.42, respectively.
Consider `CC[C@H](C)/C=C(C)/C=C/C1=CC2=C(Cl)[C@H](OC)[C@]3(C)O[C@@](C)(OC)[C@H](C(C)=O)[C@H]3C2=CO1`, for which the viability at 10 µM was 60.9% with 786-0 [2], 6.6% in the test on 786-0 [10] and 0.5% with 786-0 [23]. Also, the Activity with 786-0 [3] turned out to be 27.4%; with 786-0 [4], 0.6%; in the test on 786-0 [5], 1.4%; in the test on 786-0 [6] it was 2%; with 786-0 [7] it was 0.8%; in the test on 786-0 [8], 2.3%. Further, the Activity was 6% in the test with 786-0 [9]; 4.4% in the test with 786-0 [11]; 2.7% in the test with 786-0 [13]; 1.5% in the test with 786-0 [15]; 2.5% in the test on 786-0 [16]; 1.8% in the test on 786-0 [17]. In addition, the Activity in the test with 786-0 [19] was found to be 45.5%; in the test on 786-0 [20] it was 1.5%; in the test on 786-0 [22] it was 2.8%; in the test on 786-0 [24], 11.2%; in the test with 786-0 [25], 8.9%; in the test on 786-0 [26] it was 7.5%. Besides, the Activity in the test on 786-0 [27] came out at 4%; with 786-0 [28], 6.6%; in the test on 786-0 [29], 1.7%; in the test with 786-0 [33], 28.8%; in the test with 786-0 [34], 70.7%; with 786-0 [35], 3.5%. Also, the Activity was determined as 2% with 786-0 [36], 36.7% in the test with 786-0 [37] and 10.4% in the test on 786-0 [38]. For the same compound, the viability at 5 µM in the test on 786-0 [12] is 86.1%; in the test on 786-0 [14], 85.9%; in the test with 786-0 [21], 87%. The pIC50 in the test on OS-RC-2 is 4.89; in the test with ACHN it was 4.85; with 786-0 [1] it was 5.05. The viability at 2.5 µM with 786-0 [18] came to 93.7%; in the test with 786-0 [30] it was 93.3%; with 786-0 [31], 90.7%. The result with 786-0 [32] was inactive.
As to `CC[C@H](C)/C=C(C)/C=C/C1=CC2=C(Cl)C(=O)[C@]3(C)OC(=O)/C(=C(\C)O)[C@]3(O)[C@@]23O[C@H]3O1`, the pIC50 with OS-RC-2 is 4.42; with ACHN it was 4.89; in the test with 786-0 [1] it was 5.00.
For `CC[C@H](C)/C=C(C)/C=C/C1=CC2=C(Cl)[C@H](O)[C@]3(C)OC(=O)[C@H](C(C)=O)[C@H]3C2=CO1` the same measures were 4.35, 4.57 and 4.47.
Turning to `CC[C@H](C)/C=C(C)/C=C/C1=CC2=C(Cl)C(=O)[C@](C)(O)[C@@H](CC(C)=O)C2=CO1`, the results for the pIC50 in the test with OS-RC-2, in the test on ACHN and with 786-0 [1] were 5.41, 5.36 and 5.52, respectively.
